Test results reported in patent publication US12264134B2 (Merck Sharp & Dohme LLC, priority 2018, dated 2025).

Experiments:
IDO1 [1] = biological target: T1, IDO1 (Homo sapiens, UniProt P14902); experiment: IDO1 Human Whole blood Assay; format: cell-based; parameters: Human whole blood was drawn in sodium heparin coated tubes from healthy internal donors; from tissue; host or cells: human whole blood from healthy donors, stimulated with LPS and IFNγ; conditions: LPS and IFNγ stimulated, 18 h, read-out: Human Whole Blood Potency, IC50
Procedure: IDO1Human Whole blood Assay
Compounds to be tested were serially diluted in ten 3-fold steps in DMSO starting from 10 mM. 3 μL of compound dilutions or DMSO alone were then dispensed from the dilution plate into a polypropylene 96-well assay plate containing 97 μL of RPMI medium using an Echo 555 acoustic liquid handler (Labcyte). LPS and IFNγ was prepared in RPMI medium to a 10× of final conc. (1000 ng/mL), final concentration is 100 ng/mL.
Human whole blood was drawn in sodium heparin coated tubes from healthy internal donors. 240 μL of blood was transferred to each of the wells of a v-bottom 96 well plate. 30 μL of compound was transferred from intermediate dilution plate, and incubated for 15 min. 30 μL from stimulants was then transferred to blood and mixed thoroughly. Plate was covered with breathable membrane and incubated at 37° C. for overnight (18 h).
On day 2, isotope labeled standard solutions of kynurenine and tryptophan was made in water at 10× concentration and 30 μL was added to the blood at 3 μM final concentration. The assay plates were centrifuged at 300×G for 10 min with no brake to separate plasma from red blood cells. 60 μL of plasma samples was removed without disturbing red blood cells. Plasma was diluted with RPMI in 1:1 ratio and proteins were precipitated out with two volumes of Acetonitrile. The plates were centrifuged at 4000×G for 60 min. 20 μL of supernatant was carefully transferred to a 384 well plate containing 40 μL of 0.1% formic acid in water and analyzed by LC/MS/MS.
LC/MS/MS analyses were performed using Thermo Fisher's LX4-TSQ Quantum Ultra system. This system consists of four Agilent binary high-performance liquid chromatography (HPLC) pumps and a TSQ Quantum Ultra triple quadrupole MS/MS instrument. For each sample, 5 μL were injected onto an Atlantis T3 column (2.1 mm×150 mm, 3 μm particle size) from Waters. The mobile phase gradient pumped at 0.8 mL/min was used to elute the analytes from the column at 25° C. The elution started at 0% B increasing linearly to 25% B at 6.5 min, holding at 25% for 1 min, re-equilibrating to 10 min. Mobile phase A consisted of 0.1% formic acid in water. Mobile phase B consisted of 0.1% of formic acid in acetonitrile. Data were acquired in positive mode using a HESI interface. The operational parameters for the TSQ Quantum Ultra instrument were a spray voltage of 4000 V, capillary temperature of 380° C., vaporizer temperature 400° C., shealth gas 60 arbitrary units, Aux gas 20 arbitrary units, tube lens 85 and collision gas 1.2 mTorr. SRM chromatograms of kynurenine (Q1: 209.2>Q3:94.0) and internal standard (Q1: 215.3>Q3:98.2) were collected for 90 sec. The peak area was integrated by Xcalibur Quan software. The ratios between the kynurenine generated in the reaction and 2D6-Kynurenine spiked-in internal standard were used to generate percentage inhibition and IC50 values. Compounds were titrated and IC50's were calculated by 4 parameter sigmoidal curve fitting formula.

IDO1 [2] = biological target: T1, IDO1; experiment: IDO1 Cellular Assay in HeLa Cells Stimulated with IFNγ; format: cell-based; conditions: read-out: HeLa Cell Potency, IC50

T1 sequence (P14902 whole entry): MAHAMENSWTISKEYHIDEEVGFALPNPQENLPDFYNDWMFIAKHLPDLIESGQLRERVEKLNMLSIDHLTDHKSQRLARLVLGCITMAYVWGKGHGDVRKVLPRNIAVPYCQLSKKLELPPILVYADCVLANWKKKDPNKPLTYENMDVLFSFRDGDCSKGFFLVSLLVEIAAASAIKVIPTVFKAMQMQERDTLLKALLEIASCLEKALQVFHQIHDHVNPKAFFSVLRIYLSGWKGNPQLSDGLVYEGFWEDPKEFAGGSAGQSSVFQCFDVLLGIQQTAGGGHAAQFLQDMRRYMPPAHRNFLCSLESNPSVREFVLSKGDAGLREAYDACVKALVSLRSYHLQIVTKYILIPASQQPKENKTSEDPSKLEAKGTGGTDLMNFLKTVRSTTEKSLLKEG

Row | Structure (SMILES) | IC50 (IDO1 [1]) | IC50 (IDO1 [2])
1 | Cc1c(Cl)cccc1N1CCN(C(=O)Cn2nc(C(=O)N3C[C@@H](C)O[C@@H](C)C3)c3c2CCC3)CC1 [Example 68, 1-[4-(3-chloro-2-methylphenyl)piperazin-1-yl]-2-{3-[(2R,6S)-2,6-dimethylmorpholine-4-carbonyl]-5,6-dihydrocyclopenta[c]pyrazol-1(4H)-yl}ethan-1-one] | 1.01 µM | 0.0036 µM
2 | Cc1cccc(N2CCN(C(=O)Cn3nc(C(=O)N4CC[C@H](CO)C4)c4c3CCC4)CC2)c1C [Example 83, 1-[4-(2,3-dimethylphenyl)piperazin-1-yl]-2-{3-[(3S)-3-(hydroxymethyl)pyrrolidine-1-carbonyl]-5,6-dihydrocyclopenta[c]pyrazol-1(4H)-yl}ethan-1-one] | 3.49 µM | 0.00563 µM
3 | Cc1cccc(N2CCN(C(=O)Cn3nc(C(=O)N4CCC(O)CC4)c4c3CCC4)CC2)c1C [Example 87, 1-[4-(2,3-dimethylphenyl)piperazin-1-yl]-2-[3-(4-hydroxypiperidine-1-carbonyl)-5,6-dihydrocyclopenta[c]pyrazol-1(4H)-yl]ethan-1-one] | 2.3 µM | 0.00427 µM
4 | Cc1cccc(N2CCN(C(=O)Cn3nc(C(=O)N4C[C@@H](C)O[C@@H](C)C4)c4c3CCC4)CC2)c1C [Example 88, 2-{3-[(2R,6S)-2,6-dimethylmorpholine-4-carbonyl]-5,6-dihydrocyclopenta[c]pyrazol-1(4H)-yl}-1-[4-(2,3-dimethylphenyl)piperazin-1-yl]ethan-1-one] | 0.416 µM | 0.00256 µM
5 | Cc1cccc(N2CCN(C(=O)Cn3nc(C(=O)N4CCN(S(=O)(=O)N(C)C)CC4)c4c3CCC4)CC2)c1C [Example 89, 4-(1-{2-[4-(2,3-dimethylphenyl)piperazin-1-yl]-2-oxoethyl}-1,4,5,6-tetrahydrocyclopenta[c]pyrazole-3-carbonyl)-N,N-dimethylpiperazine-1-sulfonamide] | 0.454 µM | 0.00296 µM
6 | Cc1cccc(N2CCN(C(=O)Cn3nc(C(=O)N4CCC(NS(C)(=O)=O)CC4)c4c3CCC4)CC2)c1C [Example 90, N-[1-(1-{2-[4-(2,3-dimethylphenyl)piperazin-1-yl]-2-oxoethyl}-1,4,5,6-tetrahydrocyclopenta[c]pyrazole-3-carbonyl)piperidin-4-yl]methanesulfonamide] | 0.292 µM | 0.0029 µM
7 | Cc1cccc(N2CCN(C(=O)Cn3nc(C(=O)N4CC[C@@H](O)[C@H](F)C4)c4c3CCC4)CC2)c1C [Example 91, 1-[4-(2,3-dimethylphenyl)piperazin-1-yl]-2-{3-[(3R,4R)-3-fluoro-4-hydroxypiperidine-1-carbonyl]-5,6-dihydrocyclopenta[c]pyrazol-1(4H)-yl}ethan-1-one] | 9.55 µM | 0.0058 µM
8 | Cc1cccc(N2CCN(C(=O)Cn3nc(C(=O)N4CC[C@H](O)[C@H](F)C4)c4c3CCC4)CC2)c1C [Example 92, 1-[4-(2,3-dimethylphenyl)piperazin-1-yl]-2-{3-[(3R,4S)-3-fluoro-4-hydroxypiperidine-1-carbonyl]-5,6-dihydrocyclopenta[c]pyrazol-1(4H)-yl}ethan-1-one] | 0.256 µM | 0.0109 µM
9 | Cc1cccc(N2CCN(C(=O)Cn3nc(C(=O)N4CCC5(CCOC5)CC4)c4c3CCC4)CC2)c1C [Example 93, 1-[4-(2,3-dimethylphenyl)piperazin-1-yl]-2-[3-(2-oxo-8-azaspiro[4.5]decane-8-carbonyl)-5,6-dihydrocyclopenta[c]pyrazol-1(4H)-yl]ethan-1-one] | 0.18 µM | 0.00311 µM
10 | Cc1cccc(N2CCN(C(=O)Cn3nc(C(=O)N4CC[C@H](O)[C@@H](C)C4)c4c3CCC4)CC2)c1C [Example 94, 1-[4-(2,3-dimethylphenyl)piperazin-1-yl]-2-{3-[(3S,4S)-4-hydroxy-3-methylpiperidine-1-carbonyl]-5,6-dihydrocyclopenta[c]pyrazol-1(4H)-yl}ethan-1-one] | 0.345 µM | 0.00246 µM
11 | Cc1cccc(N2CCN(C(=O)Cn3nc(C(=O)N4CCC(CO)CC4)c4c3CCC4)CC2)c1C [Example 101, 1-[4-(2,3-dimethylphenyl)piperazin-1-yl]-2-{3-[4-(hydroxymethyl)piperidine-1-carbonyl]-5,6-dihydrocyclopenta[c]pyrazol-1(4H)-yl}ethan-1-one] | 0.711 µM | 0.00612 µM
12 | Cc1cccc(N2CCN(C(=O)Cn3nc(C(=O)N4CC[C@@H](O)[C@@H](C)C4)c4c3CCC4)CC2)c1C [Example 106, 1-[4-(2,3-dimethylphenyl)piperazin-1-yl]-2-{3-[(3S,4R)-4-hydroxy-3-methylpiperidine-1-carbonyl]-5,6-dihydrocyclopenta[c]pyrazol-1(4H)-yl}ethan-1-one] | 0.802 µM | 0.00387 µM
13 | Cc1cccc(N2CCN(C(=O)Cn3nc(C(=O)N4CC[C@H](O)[C@H](C)C4)c4c3CCC4)CC2)c1C [Example 107, 1-[4-(2,3-dimethylphenyl)piperazin-1-yl]-2-{3-[(3R,4S)-4-hydroxy-3-methylpiperidine-1-carbonyl]-5,6-dihydrocyclopenta[c]pyrazol-1(4H)-yl}ethan-1-one] | 0.154 µM | 0.0012 µM
14 | Cc1cccc(N2CCN(C(=O)Cn3nc(C(=O)N4CC[C@@H](O)[C@H](C)C4)c4c3CCC4)CC2)c1C [Example 108, 1-[4-(2,3-dimethylphenyl)piperazin-1-yl]-2-{3-[(3R,4R)-4-hydroxy-3-methylpiperidin-1-carbonyl]-5,6-dihydrocyclopenta[c]pyrazol-1(4H)-yl}ethan-1-one] | 0.077 µM | 0.00179 µM
15 | Cc1cccc(N2CCN(C(=O)Cn3nc(C(=O)N4CC[C@H](O)[C@@H](C)C4)c4c3CCC4)CC2)c1C [Example 109, 1-[4-(2,3-dimethylphenyl)piperazin-1-yl]-2-{3-[(3S,4S)-4-hydroxy-3-methylpiperidine-1-carbonyl]-5,6-dihydrocyclopenta[c]pyrazol-1(4H)-yl}ethan-1-one] | 0.399 µM | 0.00186 µM
16 | Cc1cccc(N2CCN(C(=O)Cn3nc(C(=O)N4CCC(OCCO)CC4)c4c3CCC4)CC2)c1C [Example 120, 1-[4-(2,3-dimethylphenyl)piperazin-1-yl]-2-{3-[4-(2-hydroxyethoxy)piperidine-1-carbonyl]-5,6-dihydrocyclopenta[c]pyrazol-1(4H)-yl}ethan-1-one] | 0.199 µM | 0.00297 µM
17 | Cc1cccc(N2CCN(C(=O)Cn3nc(C(=O)N4CCN(S(C)(=O)=O)C[C@@H]4C)c4c3CCC4)CC2)c1C [Example 124, 1-[4-(2,3-dimethylphenyl)piperazin-1-yl]-2-{3-[(2S)-2-methyl-4-(methylsulfonyl)piperazine-1-carbonyl]-5,6-dihydrocyclopenta[c]pyrazol-1(4H)-yl}ethan-1-one] | 0.877 µM | 0.00132 µM
18 | Cc1cccc(N2CCN(C(=O)Cn3nc(C(=O)N4CC[C@@H](O)C[C@@H]4C)c4c3CCC4)CC2)c1C [Example 125, 1-[4-(2,3-dimethylphenyl)piperazin-1-yl]-2-{3-[(2S,4R)-4-hydroxy-2-methylpiperidine-1-carbonyl]-5,6-dihydrocyclopenta[c]pyrazol-1(4H)-yl}ethan-1-one] | 0.444 µM | 0.00329 µM
19 | COC1CCN(C(=O)c2nn(CC(=O)N3CCN(c4cccc(C)c4C)CC3)c3c2CCC3)CC1 [Example 126, 1-[4-(2,3-dimethylphenyl)piperazin-1-yl]-2-[3-(4-methoxypiperidine-1-carbonyl)-5,6-dihydrocyclopenta[c]pyrazol-1(4H)-yl]ethan-1-one] | 0.3 µM | 0.00261 µM
